This is an account of results in publication PMC12677843, “Multidisciplinary Preclinical Investigations on Ferrocenyl, Ruthenocenyl, and Benzyl Derivatives of Niridazole as New Drug Candidates against Schistosomiasis” (Chemmedchem, 2025).

As a reminder, the EC50 is the concentration at which the effect is half-maximal. A higher EC50 goes with a less potent agent.

In data set [1] the test system is juvenile S. mansoni. In words: In vitro drug sensitivity assay on juvenile S. mansoni. It is filed as cell-based, Schistosoma mansoni. The settings on record: Schistosoma mansoni; 72 h incubation, 37 °C, 5% CO2. As for the experimental part:
Juvenile worms were gained through cultivation of NTS as previously described. 10 In short, NTS were obtained as described above, then directly after the mechanical transformation process the newly transformed schistosomula were placed in a special culturing medium. The culture medium consists of Panserin 401, w: L-Glutamine, serum free all-round medium (Pan Biotech, Aidenbach, Germany) supplemented with 20 % human serum and 500 U/mL penicillin, […] streptomycin (LuBioScience, Switzerland). 96-well transparent polystyrene flat bottom plates were used for the in vitro growth procedure, with 40 to 60 NTS per well in 100 µL culture medium. The bordering wells of the plate were filled solely with medium to counteract evaporation and to keep the humidity as steady as possible. The plates were incubated for 21 days at 5 % CO2 and at 37 °C, with regular medium changes every 3 to 4 days. After the 21 days culturing period, the schistosomulae developed into juveniles. For the drug sensitivity assay, juvenile worms were incubated over 72 h (5 % CO 2 and 37 °C) with the test compound in the same medium, as used for the culturing process. In a 96-well plate, 250 µL medium containing the test compound and six juvenile worms, ideally of both sexes were placed in each well. All compounds were tested twice independently at 50, 10, 5 and 1 µM in duplicates. The viability of the worms was evaluated microscopically after 24, 48 and 72 h of continuous drug exposure using the same phenotypic screening method as described before. […]

The subject of data set [2] is HUH7 hepatocarcinoma cells. Description: XTT mitochondrial activity/cell viability assay, HUH7. Type of data set: cell-based. The following applies: 20 µM, 24 h, serum-free media, vs DMSO control (0.2%). The method, then:
Results were normalized to the DMSO control. […]
to, so that all test concentrations contained always the same amount of DMSO.
Additionally, 2 wells with negative controls containing only DMSO and the culture medium were included. After an incubation period of 72 h at 37 °C and 5 % CO 2, the worms were microscopically evaluated. The drug effect was determined 24, 48 and 72 h post-exposure based on the phenotype of the adult worms, using a viability scale ranging from three referring to viable, motile worms with no change in their tegument to zero standing for the death of the worms.
All described in vitro studies with mice involved, were conducted at the Swiss Tropical and Public Health Institute, first in Basel, later in Allschwil, and had the approval by the corresponding veterinary authorities of the Canton Basel-Stadt (permit no. 2070) […]
Following 24 h of incubation, 12.5 μL of an XTT/phenazine methosulfate (PMS) (XTT Sigma Aldrich cat X4626, PMS Serva CAT: 3203) 0.02solution (1 mg/mL XTT and 7.5 μg/mL PMS) was added to each well. Absorbance was measured using a microplate reader (Biotek Synergy HT) at 450 nm (signal) and 650 nm (background), 2 h after the addition of the XTT/PMS solution. […] Mean ± SD was determined from three independent experiments, each performed in quintuplicate. […]
The cytotoxic potential was additionally evaluated using the staining-based SYTOX viability assay. […]
A general note: Tetrazolium assays rely on reduction of a dye to a coloured formazan, in cell work by metabolically active cells.

Data set [3] deals with SH-SY5Y neuroblastoma cells. Description: XTT mitochondrial activity/cell viability assay, SH-SY5Y. Type of data set: cell-based. The settings on record: 20 µM, 24 h, serum-free media, vs DMSO control (0.2%), mean. The method, then: The safety profile of niridazole and its organometallic derivatives was evaluated using two different cell lines. The XTT mitochondrial activity assay reflecting cell viability was performed in the hepatocyte‐derived carcinoma cell line HUH7 and in the human neuroblastoma cell line SH‐SY5Y at 20 µM for 24 h. The SYTOX cell viability assay was subsequently performed on the SH‐SY5Y cell line, once the cell line was identified to be more sensitive to the treatment conditions.
Figure 5 XTT assay. Results of the XTT activity/viability assay are shown in A for HUH7 and B for SHSY5Y cells. […]
Additionally, 2 wells with negative controls containing only DMSO and the culture medium were included. After an incubation period of 72 h at 37 °C and 5 % CO 2, the worms were microscopically evaluated. The drug effect was determined 24, 48 and 72 h post-exposure based on the phenotype of the adult worms, using a viability scale ranging from three referring to viable, motile worms with no change in their tegument to zero standing for the death of the worms. […]
Following 24 h of incubation, 12.5 μL of an XTT/phenazine methosulfate (PMS) (XTT Sigma Aldrich cat X4626, PMS Serva CAT: 3203) 0.02solution (1 mg/mL XTT and 7.5 μg/mL PMS) was added to each well. […] Mean ± SD was determined from three independent experiments, each performed in quintuplicate. […]

Compound `O=C1NCCN1c1ncc([N+](=O)[O-])s1` [Niridazole, niridazole] showed an EC50 in data set [1] of 1800 nM. Besides, the “XTT activity in HUH7 cells compared to DMSO control” value in data set [2] is listed as “no signs of toxicity”. The “reduction of XTT signal in SH-SY5Y cells” value in data set [3] was “no signs of toxicity”.
